Patent US6696451B1 (dated 2004)

SMILES | melting point [°C]
COC(=O)C1=C(C)NC(c2ncccc2F)=NC1c1ccc(F)cc1 (stereo not drawn) | 127 to 129
CCOC(=O)C1=C(C)NC(c2ncccc2F)=NC1c1ccc(Cl)cc1 (stereo not drawn) | 133 to 134
COC(=O)C1=C(C)NC(c2ncccc2F)=NC1c1ccccc1 (stereo not drawn) | 110 to 111
CCOC(=O)C1=C(C)NC(c2ncccc2F)=NC1c1c(F)cccc1F (stereo not drawn) | 140 to 142
COC(=O)C1=C(C)NC(c2ncccc2F)=NC1c1ccccc1C(F)(F)F (stereo not drawn) | 165 to 167
COC(=O)C1=C(C)NC(c2ncccc2F)=NC1c1c(Cl)cccc1Cl (stereo not drawn) | 180 to 182
CCOC(=O)C1=C(C)NC(c2ncccc2F)=NC1c1c(Cl)cccc1Cl (stereo not drawn) | 148 to 149
COC(=O)C1=C(C)NC(c2ncccc2F)=NC1c1ccc(F)cc1Cl (stereo not drawn) | 121 to 123
COC(=O)C1=C(C)NC(c2ccc(C(F)(F)F)cn2)=NC1c1ccccc1Cl (stereo not drawn) | 121 to 123
CCOC(=O)C1=C(C)NC(c2ncccc2Cl)=NC1c1ccccc1Cl (stereo not drawn) | 138 to 140
COC(=O)C1=C(C)NC(c2ccc(Cl)cn2)=NC1c1ccccc1Cl (stereo not drawn) | 163 to 165
C=CCOC(=O)C1=C(C)NC(c2ncccc2F)=NC1c1ccccc1Cl (stereo not drawn) | 124 to 126
CC1=C(C(=O)OCCOc2ccccc2)C(c2ccccc2Cl)N=C(c2ncccc2F)N1 (stereo not drawn) | 123 to 125
CCOC(=O)C1=C(C)NC(c2ncccc2F)=NC1c1ccc(I)cc1 (stereo not drawn) | 145 to 146
COC(=O)C1=C(C2CC2)NC(c2ncccc2F)=NC1c1ccccc1Cl (stereo not drawn) | 120 to 122
COC(=O)C1=C(C)NC(c2ncccc2Cl)=NC1c1ccccc1Cl (stereo not drawn) | 144 to 146
COC(=O)C1=C(C)NC(c2ncccc2F)=NC1c1ccc(Cl)c([N+](=O)[O-])c1 (stereo not drawn) | 135 to 137
COC(=O)C1=C(C)NC(c2ncccc2F)=NC1c1ccccc1Br (stereo not drawn) | 143 to 144
COC(=O)C1=C(C)NC(c2ncccc2F)=NC1c1ccc(Br)cc1 (stereo not drawn) | 156 to 157
CCOC(=O)C1=C(C)NC(c2ncccc2F)=NC1c1ccc(Br)cc1 (stereo not drawn) | 134 to 135
CCOC(=O)C1=C(C)NC(c2ncccc2F)=NC1c1ccc(O)cc1Cl (stereo not drawn) | 247 to 248
CCOC(=O)C1=C(C)NC(c2ncccc2F)=NC1c1ccc(F)cc1 (stereo not drawn) | 129 to 130
CCOC(=O)C1=C(C)NC(c2ncccc2Cl)=NC1c1ccc(Br)cc1F (stereo not drawn) | 126 to 127

SMILES | melting point [°C]
CCOC(=O)C1=C(C)NC(c2ncccc2F)=NC1c1ccc(Br)cc1F (stereo not drawn) | 156 to 158
CCOC(=O)C1=C(C)NC(c2ncccc2F)=NC1c1ccc(Cl)cc1F (stereo not drawn) | 162 to 163
CCOC(=O)C1=C(C)NC(c2ncccc2F)=NC1c1ccc(F)cc1C (stereo not drawn) | 167 to 169
CCOC(=O)C1=C(C)NC(c2ncccc2F)=NC1c1ccccc1I (stereo not drawn) | 163 to 164
COC(=O)C1=C(C)NC(c2ncccc2F)=NC1c1ccc(Cl)cc1F (stereo not drawn) | 120 to 122
COC(=O)C1=C(C)NC(c2ncccc2Cl)=NC1c1ccc(Br)cc1F (stereo not drawn) | 103 to 104
COC(=O)C1=C(C)NC(c2ncccc2F)=NC1c1ccccc1Cl.Cl (stereo not drawn) | 210 to 212
CC(=O)C1=C(C)NC(c2ncccc2F)=NC1c1ccccc1Cl (stereo not drawn) | 132 to 133
COC(=O)C1=C(C)NC(c2ncccc2Cl)=NC1c1ccc(F)cc1Cl (stereo not drawn) | 95 to 96
COC(=O)C1=C(C)NC(c2ncccc2Cl)=NC1c1ccccc1Br (stereo not drawn) | 131 to 132
CCOC(=O)C1=C(C)NC(c2ncccc2Cl)=NC1c1ccccc1Br (stereo not drawn) | 137 to 138
COC(=O)C1=C(C)NC(c2ncccc2F)=NC1c1ccc([N+](=O)[O-])cc1 (stereo not drawn) | 142 to 143
CCOC(=O)C1=C(C)NC(c2ncccc2F)=NC1c1ccc(Cl)cc1[N+](=O)[O-] (stereo not drawn) | 184 to 186
CCOC(=O)C1=C(C)NC(c2ncccc2F)=NC1c1cc(Cl)cc(Cl)c1 (stereo not drawn) | 133 to 134
COC(=O)C1=C(C)NC(c2ncccc2F)=NC1c1cc([N+](=O)[O-])c(Cl)cc1F (stereo not drawn) | 135 to 136
COC(=O)C1=C(C)NC(c2ccc(F)cn2)=NC1c1ccc(F)cc1Cl (stereo not drawn) | 131
CCOC(=O)C1=C(C)NC(c2ccc(F)cn2)=NC1c1ccc(F)cc1Cl (stereo not drawn) | 124
CCOC(=O)C1=C(C)NC(c2ccc(OC)cn2)=NC1c1ccc(F)cc1Cl (stereo not drawn) | 141
COC(=O)C1=C(C)NC(c2cc(OC)ccn2)=NC1c1ccc(F)cc1Cl (stereo not drawn) | 132
COC(=O)C1=C(C)NC(c2cccc(C)n2)=NC1c1ccccc1Cl (stereo not drawn) | 142 to 143
COC(=O)C1=C(C)NC(c2ncccc2F)=NC1c1ccc(Cl)cc1 (stereo not drawn) | 139 to 140
COC(=O)C1=C(C)NC(c2ncccc2F)=NC1c1cccc2ncc(-c3ccccc3)cc12 (stereo not drawn) | 174 to 175
